The source of these data is DBAASP.

Molecules are shown by their SMILES. In brackets after ≈: the same amount, converted by molar mass. Several values for one entry are separate records, joined by “and”; a condition that tells them apart may be missing. Equal values may be shown once.

Among the test systems are Streptococcus mutans; Bacillus subtilis; Escherichia coli; Escherichia coli 078; Escherichia coli K88; Escherichia coli K99; Escherichia coli UB1005; Escherichia coli K-12; Micrococcus luteus.
What all share (assay): ≥ marks a high value that may be exact or a test limit, other limits are often not marked, values filed in µg/mL are converted to µM
The test system of assay [1] is Escherichia coli ATCC 25922.
For assay [2], the system named is Staphylococcus aureus NCTC 8325.
In assay [3] the test system is Staphylococcus aureus ATCC BAA-1556.
Assay [4] relates to Enterococcus faecalis ATCC 29212.
Assay [5] relates to Klebsiella pneumoniae ATCC 13883.
Assay [6] relates to Pseudomonas aeruginosa ATCC 27853.
The subject of assay [7] is Salmonella enterica subsp. enterica serovar Typhimurium ATCC 14028.
Assay [8] deals with Staphylococcus aureus ATCC 25923.
Assay [9] deals with Streptococcus pyogenes ATCC 19615.
Assay [10] has as its system Bacillus subtilis CMCC 63501.
Assay [11] concerns Salmonella enterica subsp. enterica serovar Pullorum C79-13.
Assay [12] deals with Salmonella enterica subsp. enterica serovar Typhimurium C77-31.
Assay [13] has as its system Staphylococcus aureus ATCC 29213.
Assay [14] concerns Staphylococcus epidermidis ATCC 12228.
Assay [15] concerns Micrococcus luteus ATCC 9341.
Assay [16] concerns Staphylococcus aureus USA 300.
Assay [17] deals with Candida albicans ATCC 90028.

As a reminder, the MIC is the lowest concentration that inhibits growth of the organism. Lower therefore signals a more susceptible organism. In the case of `CC[C@H](C)[C@H](NC(=O)[C@H](CCCCN)NC(=O)[C@H](C)NC(=O)[C@H](CC(C)C)NC(=O)[C@H](CC(=O)O)NC(=O)[C@@H](NC(=O)[C@H](C)N)C(C)C)C(=O)N[C@@H](C)C(=O)N[C@@H](CC(N)=O)C(=O)N[C@@H](CCCCN)C(=O)N[C@H](C(=O)N[C@@H](CC(C)C)C(=O)N[C@@H](CO)C(=O)N[C@@H](CO)C(=O)N[C@@H](CC(C)C)C(=O)N[C@@H](Cc1ccccc1)C(N)=O)C(C)C` [AVDLAKIANKVLSSLF], the results for the MIC in assay [1] and in [2] were 37.5 µM (≈ 63.3 µg/mL) and not below 150 µM, respectively.

Regarding `CC(C)C[C@H](NC(=O)[C@H](CCCCN)NC(=O)[C@H](CC(C)C)NC(=O)[C@H](CC(C)C)NC(=O)[C@H](CC(C)C)NC(=O)[C@H](CCCCN)NC(=O)[C@@H](N)CC(C)C)C(N)=O` [LKLLLKL], the MIC in assay [3] is not below 100 µM.

For the compound `CC[C@H](C)[C@H](NC(=O)CNC(=O)CNC(=O)CNC(=O)[C@H](Cc1ccccc1)NC(=O)[C@H](Cc1c[nH]c2ccccc12)NC(=O)[C@H](CCCN=C(N)N)NC(=O)[C@H](Cc1c[nH]c2ccccc12)NC(=O)[C@H](CCCN=C(N)N)NC(=O)[C@H](Cc1c[nH]c2ccccc12)NC(=O)[C@@H](N)CCCN=C(N)N)C(=O)N[C@@H](CCCCN)C(=O)N[C@@H](CCC(N)=O)C(=O)N[C@@H](CC(C)C)C(=O)N[C@@H](CC(C)C)C(=O)N[C@@H](Cc1cnc[nH]1)C(=O)N[C@@H](Cc1ccccc1)C(=O)N[C@@H](Cc1ccccc1)C(=O)N[C@@H](CCC(N)=O)C(=O)N[C@@H](Cc1c[nH]c2ccccc12)C(=O)N[C@@H](CCCN=C(N)N)C(=O)N[C@@H](Cc1ccccc1)C(N)=O` [RWRWRWFGGGIKQLLHFFQWRF], in the assay on Streptococcus mutans, the MIC turned out to be 3.76 µM (≈ 11.3 µg/mL).

For `CC(C)[C@H](NC(=O)CNC(=O)[C@H](CCCN=C(N)N)NC(=O)[C@H](Cc1cnc[nH]1)NC(=O)[C@H](Cc1c[nH]c2ccccc12)NC(=O)[C@H](Cc1ccccc1)NC(=O)[C@H](Cc1cnc[nH]1)NC(=O)[C@H](Cc1ccc(O)cc1)NC(=O)[C@@H](N)Cc1ccc(O)cc1)C(=O)N[C@H](C(=O)N[C@@H](CCCCN)C(=O)N[C@@H](CCCN=C(N)N)C(=O)O)[C@@H](C)O` [YYHFWHRGVTKR], the MIC against Bacillus subtilis was not below 40 µM; in assay [4], 30 µM (≈ 49.5 µg/mL); in the assay with Escherichia coli it was 40 µM (≈ 66 µg/mL); in assay [5], not below 40 µM; in [6], 40 µM (≈ 66 µg/mL); in assay [7], 40 µM (≈ 66 µg/mL). For the same compound, the MIC is 30 µM (≈ 49.5 µg/mL) in assay [8] and not below 70 µM in [9].

As to `CC[C@H](C)[C@H](NC(=O)[C@H](Cc1c[nH]c2ccccc12)NC(=O)[C@H](CCCCN)NC(=O)[C@H](CC(C)C)NC(=O)[C@@H](NC(=O)[C@H](Cc1c[nH]c2ccccc12)NC(=O)CNC(=O)[C@@H](NC(=O)[C@H](CCCCN)NC(=O)[C@H](CCCCN)NC(=O)[C@H](CC(C)C)NC(=O)[C@@H](N)CCCN=C(N)N)[C@@H](C)CC)C(C)C)C(N)=O` [RLKKIGWVLKWI], the MIC in [10] amounted to 2 µM (≈ 3.08 µg/mL); in assay [4], 4 µM (≈ 6.16 µg/mL); in the assay on Escherichia coli 078 it was 4 µM (≈ 6.16 µg/mL); in [1], 2 µM (≈ 3.08 µg/mL); in the assay on Escherichia coli K88 it was 1 µM (≈ 1.54 µg/mL); with Escherichia coli K99, 4 µM (≈ 6.16 µg/mL). Moreover, the MIC was 1 µM (≈ 1.54 µg/mL) in the assay with Escherichia coli UB1005; 1 µM (≈ 1.54 µg/mL) in [11]; 4 µM (≈ 6.16 µg/mL) in assay [7]; 4 µM (≈ 6.16 µg/mL) in assay [12]; 4 µM (≈ 6.16 µg/mL) in assay [8]; 4 µM (≈ 6.16 µg/mL) in assay [13]. The same compound showed an MIC in assay [14] of 4 µM (≈ 6.16 µg/mL).

On to `CC[C@H](C)[C@H](N)C(=O)N[C@@H](CC(C)C)C(=O)N1CCC[C@H]1C(=O)N[C@@H](Cc1c[nH]c2ccccc12)C(=O)N[C@@H](CCCCN)C(=O)N[C@@H](Cc1c[nH]c2ccccc12)C(=O)N1CCC[C@H]1C(=O)N[C@@H](Cc1c[nH]c2ccccc12)C(=O)N[C@@H](Cc1c[nH]c2ccccc12)C(=O)N1CCC[C@H]1C(N)=O` [ILPWKWPWWP], for which, in assay [15], the MIC was determined as 1.6 µM (≈ 2.25 µg/mL).

Turning to `CC[C@H](C)[C@H](NC(=O)[C@H](C)NC(=O)[C@H](CCCCN)NC(=O)[C@H](Cc1ccccc1)NC(=O)CN)C(=O)N[C@H](C(=O)N[C@@H](CCC(N)=O)C(=O)N[C@@H](CCCN=C(N)N)C(=O)N[C@H](C(=O)N[C@@H](CCCCN)C(=O)N[C@@H](CC(=O)O)C(=O)N[C@@H](Cc1ccccc1)C(=O)N[C@@H](CC(C)C)C(=O)N[C@@H](CCCN=C(N)N)C(=O)N[C@@H](CC(N)=O)C(=O)N[C@@H](CC(C)C)C(=O)N[C@H](C(N)=O)C(C)C)[C@@H](C)CC)C(C)C` [GFKAIVQRIKDFLRNLV], the MIC with Escherichia coli K-12 was 15 µM (≈ 30.2 µg/mL); in [16], 7.5 µM and 3.1 µM.

For `CC[C@H](C)[C@H](NC(=O)[C@H](CCCCN)NC(=O)[C@H](CC(C)C)NC(=O)[C@H](CC(C)C)NC(=O)[C@@H]1CCCN1C(=O)CNC(=O)[C@H](CC(C)C)NC(=O)[C@H](CC(C)C)NC(=O)CN)C(=O)N[C@@H](C)C(=O)N[C@@H](C)C(=O)N[C@@H](CCCCN)C(=O)N[C@H](C(=O)NCC(=O)N[C@@H](CO)C(=O)N[C@@H](CC(N)=O)C(=O)N[C@@H](CC(C)C)C(=O)N[C@@H](CC(C)C)C(=O)O)C(C)C` [GLLGPLLKIAAKVGSNLL], the MIC in assay [17] is not below 200 µM; in assay [1], 60 µM (≈ 107 µg/mL); in assay [2], not below 130 µM.

With `CC[C@H](C)[C@H](NC(=O)[C@H](CO)NC(=O)[C@H](CO)NC(=O)[C@@H](NC(=O)[C@H](CC(C)C)NC(=O)CN)C(C)C)C(=O)NCC(=O)N[C@@H](CCCN=C(N)N)C(=O)N[C@@H](C)C(=O)N[C@@H](CC(C)C)C(=O)NCC(=O)NCC(=O)N[C@@H](CC(C)C)C(=O)N[C@@H](CC(C)C)C(=O)N[C@@H](C)C(=O)N[C@@H](CC(=O)O)C(=O)N[C@H](C(=O)N[C@H](C(=O)N[C@@H](CCCCN)C(=O)N[C@@H](CO)C(=O)N[C@@H](CCCCN)C(=O)N[C@@H](CCC(=O)O)C(=O)N[C@@H](CCC(N)=O)C(=O)N1CCC[C@H]1C(=O)N[C@@H](C)C(=O)O)C(C)C)C(C)C` [GLVSSIGRALGGLLADVVKSKEQPA], the MIC with Micrococcus luteus was 20.3 µM (≈ 50 µg/mL).

Take `CC[C@H](C)[C@H](NC(=O)[C@H](CCCCN)NC(=O)[C@H](CCSC)NC(=O)[C@H](CC(C)C)NC(=O)CNC(=O)CNC(=O)[C@H](CC(C)C)NC(=O)[C@@H](N)Cc1ccccc1)C(=O)N[C@H](C(=O)N1CCC[C@H]1C(=O)N[C@@H](C)C(=O)N[C@@H](C)C(=O)N[C@@H](Cc1ccccc1)C(=O)N[C@H]1CSSC[C@@H](C(=O)O)NC(=O)[C@H](CCCCN)NC(=O)[C@H](CCCCN)NC(=O)[C@H]([C@@H](C)O)NC(=O)[C@H](C(C)C)NC(=O)[C@H](C)NC1=O)[C@@H](C)CC` [FLGGLMKIIPAAFCAVTKKC]: the MIC in [17] was not below 70 µM; in assay [1], 9 µM (≈ 19 µg/mL); in assay [2], 18 µM (≈ 38 µg/mL).

`CC[C@H](C)[C@H](N)C(=O)N[C@@H](CC(C)C)C(=O)N1CCC[C@H]1C(=O)N[C@@H](Cc1c[nH]c2ccccc12)C(=O)N[C@@H](CCCCN)C(=O)N[C@@H](Cc1c[nH]c2ccccc12)C(=O)N1CCC[C@H]1C(=O)N[C@@H](Cc1c[nH]c2ccccc12)C(N)=O` [ILPWKWPW] yielded an MIC in assay [15] of 6.3 µM (≈ 7.08 µg/mL).

For `CSCC[C@H](NC(=O)CNC(=O)CNC(=O)[C@H](CCCCN)NC(=O)[C@H](C)NC(=O)[C@H](Cc1ccccc1)NC(=O)[C@H](CCCCN)NC(=O)[C@H](CCCCN)NC(=O)[C@H](CC(C)C)NC(=O)[C@H](C)NC(=O)[C@H](CC(=O)O)NC(=O)[C@H](CC(C)C)NC(=O)[C@H](Cc1ccccc1)NC(=O)[C@@H](NC(=O)CN)C(C)C)C(=O)N[C@@H](CC(N)=O)C(=O)N[C@@H](C)C(=O)N[C@H](C(=O)N[C@@H](CC(C)C)C(=O)N[C@@H](CC(N)=O)C(=O)N1CCC[C@H]1C(=O)N[C@@H](CCCCN)C(=O)O)C(C)C` [GVFLDALKKFAKGGMNAVLNPK], the MIC in [17] is not below 100 µM; in assay [1] it was 18 µM (≈ 41.7 µg/mL); in assay [2] it was not below 100 µM.
